# Experimental data: patent US20090197944A1, “AGENT FOR IMPROVING MUSCLE FORCE” (KAO CORPORATION, priority 2006, published 2009)
# Tested on: isolated soleus muscle
# Test: Electrical stimulation of isolated muscle (fatigue resistance)
# Assay type: ex vivo tissue, mice
# Conditions: 50 μM in Krebs solution, 37° C., equilibrated three minutes, stimulation 330 ms/2-sec, 40 Hz; vs control solution
# Protocol: Mice were bred in a similar manner to that for the control group of Test Example 1. Thereafter, soleus muscle was removed from each mouse. The isolated soleus muscle was fixed to a transducer (FORT100, product of WPI) in 37° C. Krebs solution (aeration: 95%-oxygen, 5%-carbon dioxide). The effect of catechins on the isolated muscle was analyzed. Specifically, each of eight catechin species (catechin, epicatechin, gallocatechin, epigallocatechin, catechin gallate, epicatechin gallate, gallocatechin gallate, and epigallocatechin gallate) was dissolved in a Krebs solution to a concentration of 50 μM. Each muscle piece was equilibrated in each solution for three minutes, and electrically stimulated (330 ms/2-sec). The frequency of stimulation was 40 Hz. […] A Krebs solution to which no catechin species had been added was employed as a control solution.
row,SMILES,muscle force after 1 minute stimulation as fatigue index (ratio to muscle force at the start of electrical stimulation defined as 1)
1,O=C(O[C@@H]1Cc2c(O)cc(O)cc2O[C@@H]1c1ccc(O)c(O)c1)c1cc(O)c(O)c(O)c1 [epicatechin gallate],improved muscle fatigue resistance
2,O=C(O[C@@H]1Cc2c(O)cc(O)cc2O[C@@H]1c1cc(O)c(O)c(O)c1)c1cc(O)c(O)c(O)c1 [epigallocatechin gallate],improved muscle fatigue resistance
3,O=C(O[C@@H]1Cc2c(O)cc(O)cc2O[C@H]1c1cc(O)c(O)c(O)c1)c1cc(O)c(O)c(O)c1 [gallocatechin gallate],improved muscle fatigue resistance
